Where two headings read alike, the source gives them in different places.
Target: T1, TRPC5 (Homo sapiens, UniProt Q9UL62)
T1 construct: expressed in transfected cells; host or cells: HEK 293
T1 sequence (Q9UL62 1-973): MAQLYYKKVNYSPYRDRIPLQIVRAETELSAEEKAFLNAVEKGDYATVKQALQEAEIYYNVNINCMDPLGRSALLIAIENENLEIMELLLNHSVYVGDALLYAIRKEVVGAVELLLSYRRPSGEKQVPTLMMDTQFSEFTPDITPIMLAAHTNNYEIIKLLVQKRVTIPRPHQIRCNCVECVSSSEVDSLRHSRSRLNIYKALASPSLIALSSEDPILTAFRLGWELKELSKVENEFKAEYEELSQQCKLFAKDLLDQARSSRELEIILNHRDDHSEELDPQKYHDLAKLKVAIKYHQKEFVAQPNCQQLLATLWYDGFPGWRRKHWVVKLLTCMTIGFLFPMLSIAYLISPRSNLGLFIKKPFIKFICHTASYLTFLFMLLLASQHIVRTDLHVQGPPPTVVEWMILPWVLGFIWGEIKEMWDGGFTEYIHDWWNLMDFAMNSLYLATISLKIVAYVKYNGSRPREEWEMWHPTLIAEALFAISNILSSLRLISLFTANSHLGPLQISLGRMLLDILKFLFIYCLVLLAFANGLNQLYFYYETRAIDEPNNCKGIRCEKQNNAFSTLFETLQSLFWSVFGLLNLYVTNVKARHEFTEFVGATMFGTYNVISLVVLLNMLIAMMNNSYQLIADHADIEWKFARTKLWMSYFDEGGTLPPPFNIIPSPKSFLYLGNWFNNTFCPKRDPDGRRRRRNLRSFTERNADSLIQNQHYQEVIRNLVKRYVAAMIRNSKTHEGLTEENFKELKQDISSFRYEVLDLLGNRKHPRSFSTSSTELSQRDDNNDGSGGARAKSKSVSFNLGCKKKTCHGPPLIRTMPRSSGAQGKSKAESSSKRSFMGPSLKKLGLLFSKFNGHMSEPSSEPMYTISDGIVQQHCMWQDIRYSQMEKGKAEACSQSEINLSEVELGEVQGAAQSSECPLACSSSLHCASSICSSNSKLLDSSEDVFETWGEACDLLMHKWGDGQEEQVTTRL
Experiment: TRPC5 automated patch clamp assay (Qpatch), current block after rosiglitazone stimulation
Format: cell-based
Details: HEK293 cells overexpressing TRPC5
Procedure: HEK 293 cells expressing human TRPC5 were harvested, re-suspended in serum free medium, and added to the automated platform and used within 2-3 hours. Internal and external physiological solutions were freshly prepared prior to the assay. The external solution contained: 145 mM NaCl, 4 mM KCl, 2 mM CaCl2), 1 mM MgCl2, 10 mM HEPES, 10 mM glucose, pH 7.4 with NaOH and 300 mOsm/L. The internal solution contained 120 mM L-aspartic acid, 120 mM CsOH·H2O, 20 mM CsCl, 2 mM MgCl2, 8.8 mM CaCl2), 10 mM EGTA, 10 mM HEPES, 10 mM Glucose, 0.1 mM GTP and 2 mM Na2ATP; pH 7.2 with CsOH and 290 mOsm/L. The free internal Ca2+ concentration was buffered to 1 μM.
The automated electrophysiological platform QPatch 16 from Sophion (Denmark) was used to carry out the compounds profiling. The series resistance and quality of seals were continuously monitored during the experiments. Data was analyzed using Sophion QPatch assay software 5.6 (Odense). IC50 values were calculated using a least squares regression algorithm (Hill equation).
To monitor the ion currents, a voltage ramp from −100 mV to +100 mV, over 300 ms, was applied every 10 seconds, from a holding potential of −60 mV.
After recording for a minimum of 60 seconds control period, Rosiglitazone (30 uM), was applied to activate the channel.

[1] = Table 4, rosiglitazone stimulation, 80 mV, read-out: TRPC5_QP_ XC50_80
[2] = Table 4, rosiglitazone stimulation, 100 mV, read-out: TRPC5_QP_ XC50_100
[3] = rosiglitazone stimulation, 80 mV, read-out: TRPC5_QP XC50_80
[4] = rosiglitazone stimulation, 100 mV, read-out: TRPC5_QP XC50_100
[5] = Table 3, rosiglitazone stimulation, 80 mV, read-out: TRPC5_QP_ XC50_80
[6] = Table 3, rosiglitazone stimulation, 100 mV, read-out: TRPC5_QP_ XC50_100
[7] = Table 5, rosiglitazone stimulation, 80 mV, read-out: TRPC5_QP_ XC50_80
[8] = Table 5, rosiglitazone stimulation, 100 mV, read-out: TRPC5_QP_ XC50_100

Compound: O=c1[nH]ncc(N2CCN(Cc3cccc4cn[nH]c34)CC2)c1Cl
- IC50 [1]: 10 to 500 µM
- IC50 [2]: 10 to 500 µM

Compound: CCN(CC)C(=O)CN1CCN(c2cn[nH]c(=O)c2Cl)CC1
- IC50 [1]: 10 to 500 µM
- IC50 [2]: 10 to 500 µM

Compound: Cc1ccccc1CN1CCN(c2cn[nH]c(=O)c2)CC1
- IC50 [3]: 10 to 500 µM
- IC50 [4]: 10 to 500 µM

Compound: O=c1[nH]ncc(N2CCOC(c3ccccc3)C2)c1Cl (centres unmarked)
- IC50 [1]: 10 to 500 µM
- IC50 [2]: 10 to 500 µM

Compound: O=C1CN(c2cn[nH]c(=O)c2Cl)CCN1Cc1ccccc1Oc1ccccc1
- IC50 [1]: 5 to 10 µM
- IC50 [2]: 5 to 10 µM

Compound: Cc1ccccc1CN1CCN(c2cn[nH]c(=O)c2C(F)(F)F)CC1=O
- IC50 [5]: 1 to 5 µM
- IC50 [6]: 5 to 10 µM

Compound: Cc1ccccc1CN1CC2CCC(C1)N2c1cn[nH]c(=O)c1Br
- IC50 [5]: 10 to 500 µM
- IC50 [6]: 10 to 500 µM

Compound: COc1cc(F)ccc1CN1CCN(c2cn[nH]c(=O)c2Cl)CC1=O [drawing 772]
- IC50 [7]: 1 to 5 µM
- IC50 [8]: 1 to 5 µM

Compound: O=C(c1ccccc1)N1CCN(c2cn[nH]c(=O)c2Br)CC1
- IC50 [3]: 10 to 500 µM
- IC50 [4]: 10 to 500 µM

Compound: Cc1ccccc1N1CCN(c2cn[nH]c(=O)c2Cl)CC1
- IC50 [7]: 1 to 5 µM
- IC50 [8]: 1 to 5 µM

Compound: O=C1CN(c2c(Cl)cn[nH]c2=O)CCN1Cc1ccccc1OC(F)(F)F
- IC50 [7]: 10 to 500 µM
- IC50 [8]: 10 to 500 µM

Compound: O=c1[nH]ncc(N2CCc3c(ncn3-c3cccnc3C(F)(F)F)C2)c1Cl
- IC50 (Table 6, read-out: TRPC5-QPatch IC50): 1 to 5 µM

Compound: O=C1CN(c2cn[nH]c(=O)c2Cl)CCN1Cc1cccc2cn[nH]c12
- IC50 [7]: 10 to 500 µM
- IC50 [8]: 10 to 500 µM

Compound: CN(C)C(=O)CN1CCN(c2cn[nH]c(=O)c2Br)CC1
- IC50 [3]: 10 to 500 µM
- IC50 [4]: 10 to 500 µM

Compound: Cc1ccccc1CN1CC2(CCN(c3cn[nH]c(=O)c3Cl)CC2)C1
- IC50 [7]: 1 to 5 µM
- IC50 [8]: 1 to 5 µM

Compound: Cc1ccccc1Cn1cnc2c1CCN(c1cn[nH]c(=O)c1Cl)C2 [drawing 830]
- IC50 [7]: 1e-05 to 1 µM
- IC50 [8]: 1e-05 to 1 µM

Compound: CN1CCN(c2cn[nH]c(=O)c2Br)CC1
- IC50 [3]: 10 to 500 µM
- IC50 [4]: 10 to 500 µM

Compound: CC[C@@H](c1ccccc1)N1CCN(c2cn[nH]c(=O)c2Cl)CC1
- IC50 [7]: 1 to 5 µM
- IC50 [8]: 1 to 5 µM

Compound: Cc1cc(F)ccc1CN1CCN(c2c(Cl)c(Br)n[nH]c2=O)CC1=O
- IC50 [1]: 10 to 500 µM
- IC50 [2]: 10 to 500 µM

Compound: O=C1CN(c2cn[nH]c(=O)c2Cl)CCN1Cc1ccc(F)cc1OC(F)(F)F
- IC50 [1]: 1 to 5 µM
- IC50 [2]: 1 to 5 µM

Compound: CC[C@H](c1ccccc1)N1CCN(c2cn[nH]c(=O)c2Cl)CC1
- IC50 [7]: 1 to 5 µM
- IC50 [8]: 1 to 5 µM

Compound: Cc1cc(F)ccc1CN1CCN(c2c(Cl)c(Br)n[nH]c2=O)CC1
- IC50 [7]: 10 to 500 µM
- IC50 [8]: 10 to 500 µM

Compound: Cc1cc(F)ccc1CN1CCN(c2c(Cl)c(-c3ccccc3)n[nH]c2=O)CC1
- IC50 [7]: 10 to 500 µM
- IC50 [8]: 10 to 500 µM

Compound: CC(C)(C)c1ccc(CN2CCN(c3cn[nH]c(=O)c3Cl)CC2=O)cc1
- IC50 [7]: 10 to 500 µM
- IC50 [8]: 10 to 500 µM

Compound: COCCOc1c(N2CCN(Cc3ccccc3C)C(=O)C2)cn[nH]c1=O
- IC50 [1]: 10 to 500 µM
- IC50 [2]: 10 to 500 µM

Compound: O=C1CN(c2cn[nH]c(=O)c2Cl)CCN1Cc1cccnc1Oc1ccccc1
- IC50 [7]: 5 to 10 µM
- IC50 [8]: 5 to 10 µM

Compound: COc1cn[nH]c(=O)c1N1CCN(Cc2ccc(F)cc2C)CC1
- IC50 [7]: 1 to 5 µM
- IC50 [8]: 1 to 5 µM

Compound: O=C1CN(c2cn[nH]c(=O)c2Br)CCN1Cc1cccc2ccccc12 [drawing 665]
- IC50 [5]: 1e-05 to 1 µM
- IC50 [6]: 1e-05 to 1 µM

Compound: C[C@H](c1ccccc1)n1cnc2c1CCN(c1cn[nH]c(=O)c1Cl)C2 [drawing 833]
- IC50 [7]: 1 to 5 µM
- IC50 [8]: 1 to 5 µM

Compound: O=c1[nH]ncc(N2CC3(CN(Cc4ccccc4)C3)C2)c1Br
- IC50 [5]: 10 to 500 µM
- IC50 [6]: 10 to 500 µM
